Results published in patent US6737383B1, “Herbicidal oxadiazolidines” (priority 1999, dated 2004).

How the values were obtained:
bedstraw = assay: Test B pre/postemergence bedstraw; assay type: in vivo, Galium aparine
Procedure, shortened: (§1)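 Herbicidal effect was estimated by eye on a ten-point control scale after plants spent twelve to sixteen days in a greenhouse following soil or foliar treatment. Foliar sprays targeted plants at one to four leaves; all doses were formulated in a non-phytotoxic solvent with surfactant.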

blackgrass = assay: Test B pre/postemergence blackgrass; assay type: in vivo, Alopecurus myosuroides
Procedure, shortened: as §1

surinam grass = assay: Test B pre/postemergence surinam grass; assay type: in vivo, Brachiaria decumbens
Procedure, shortened: as §1

cocklebur = assay: Test B pre/postemergence cocklebur; assay type: in vivo, Xanthium strumarium
Procedure, shortened: as §1

corn = assay: Test B pre/postemergence corn; assay type: in vivo, Zea mays
Procedure, shortened: as §1

crabgrass = assay: Test B pre/postemergence crabgrass; assay type: in vivo, Digitaria sanguinalis
Procedure, shortened: as §1

giant foxtail = assay: Test B pre/postemergence giant foxtail; assay type: in vivo, Setaria faberii
Procedure, shortened: as §1

morningglory = assay: Test B pre/postemergence morningglory; assay type: in vivo, Ipomoea hederacea
Procedure, shortened: as §1

pigweed = assay: Test B pre/postemergence pigweed; assay type: in vivo, Amaranthus retroflexus
Procedure, shortened: as §1

soybean = assay: Test B pre/postemergence soybean; assay type: in vivo, Glycine max
Procedure, shortened: as §1

velvetleaf = assay: Test B pre/postemergence velvetleaf; assay type: in vivo, Abutilon theophrasti
Procedure, shortened: as §1

wheat = assay: Test B pre/postemergence wheat; assay type: in vivo, Triticum aestivum
Procedure, shortened: as §1

wild oat = assay: Test B pre/postemergence wild oat; assay type: in vivo, Avena fatua
Procedure, shortened: as §1

rice = assay: Test B flood test rice; assay type: in vivo, Oryza sativa
Procedure, shortened: (§2)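 Plants were grown to the 2-leaf stage before treatment with test chemical, then held in a greenhouse for twelve to sixteen days. Injury was visually rated against untreated controls on a 0–10 scale, where 0 is no effect and 10 is complete control.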

smallflower flatsedge = assay: Test B flood test smallflower flatsedge; assay type: in vivo, Cyperus difformis
Procedure, shortened: as §2

bamyardgrass = assay: Test B flood test barnyardgrass; assay type: in vivo, Echinochloa crus-galli
Procedure, shortened: as §2

[1] = Postemergence, Rate 125 g/ha, scale of 0 to 10 where 0 is no effect and 10 is complete control
[2] = Preemergence, Rate 125 g/ha, 0 is no effect, 10 is complete control
[3] = Preemergence, Rate 250 g/ha, scale 0 to 10, 0 is no effect, 10 is complete control
[4] = Preemergence, Rate 500 g/ha, scale 0 to 10 (0 no effect, 10 complete control)
[5] = Rate 62 g/ha, Postemergence, scale of 0 to 10 where 0 is no effect and 10 is complete control
[6] = Rate 250 g/ha, Postemergence, scale 0 to 10, 0 is no effect, 10 is complete control
[7] = Preemergence, Rate 62 g/ha, scale 0 to 10 (0 no effect, 10 complete control)
[8] = Rate 500 g/ha, Postemergence, scale 0 to 10
[9] = Rate 62 g/ha, headed Pre-emergence (flood test species), scale 0 to 10 (0 no effect, 10 complete control)
[10] = Rate 125 g/ha, Pre-emergence, flood test species, scale 0 to 10 where 0 is no effect and 10 is complete control
[11] = Rate 250 g/ha, headed Pre-emergence (flood test species), scale 0 to 10 (0 no effect, 10 complete control)
[12] = Rate 500 g/ha, headed Pre-emergence (flood test species), scale 0 to 10 (0 no effect, 10 complete control)

CC(C)N(C(=O)n1oc(=O)n(C(C)C)c1=O)c1ccc(F)cc1 [Compound 131]
Bedstraw plant response rating (bedstraw; [1]): 8 | Bedstraw plant response rating (0 to 10 scale) (bedstraw; [2]): 10 | Bedstraw plant response rating (bedstraw; [3]): 10 | Bedstraw plant response rating (bedstraw; [4]): 10 | Bedstraw plant response rating (bedstraw; [5]): 7 | Plant response rating, Bedstraw (bedstraw; [6]): 9 | Bedstraw plant response rating (bedstraw; Rate 500 g/ha, Postemergence, scale 0 to 10, 0 no effect, 10 complete control): 9 | Blackgrass plant response rating (blackgrass; [1]): 8 | Blackgrass plant response rating (blackgrass; [7]): 10 | Blackgrass plant response rating (0 to 10 scale) (blackgrass; [2]): 10 | Blackgrass plant response rating (blackgrass; [3]): 10 | Blackgrass plant response rating (blackgrass; [4]): 10 | Blackgrass plant response rating (blackgrass; [5]): 8 | Plant response rating, Blackgrass (blackgrass; [6]): 8 | Blackgrass plant response rating (blackgrass; [8]): 9 | B. signalgrass plant response rating (surinam grass; [1]): 5 | B. signalgrass plant response rating (surinam grass; [7]): 7 | B. signalgrass plant response rating (0 to 10 scale) (surinam grass; [2]): 8 | B. signalgrass plant response rating (surinam grass; [3]): 8 | B. signalgrass plant response rating (surinam grass; [4]): 9 | B. signalgrass plant response rating (surinam grass; [5]): 4 | Plant response rating, B. signalgrass (surinam grass; [6]): 8 | B. signalgrass plant response rating (surinam grass; Rate 500 g/ha, Postemergence, scale of 0 to 10 where 0 is no effect and 10 is complete control): 9 | Cocklebur plant response rating (cocklebur; [1]): 3 | Cocklebur plant response rating (cocklebur; [7]): 0 | Cocklebur plant response rating (0 to 10 scale) (cocklebur; [2]): 0 | Cocklebur plant response rating (cocklebur; [3]): 2 | Cocklebur plant response rating (cocklebur; [4]): 2 | Cocklebur plant response rating (cocklebur; [5]): 2 | Plant response rating, Cocklebur (cocklebur; [6]): 5 | Cocklebur plant response rating (cocklebur; [8]): 5 | Corn plant response rating (corn; [1]): 5 | Corn plant response rating (corn; [7]): 0 | Corn plant response rating (0 to 10 scale) (corn; [2]): 5 | Corn plant response rating (corn; [3]): 9 | Corn plant response rating (corn; [4]): 10 | Corn plant response rating (corn; [5]): 3 | Plant response rating, Corn (corn; [6]): 6 | Corn plant response rating (corn; [8]): 7 | Crabgrass plant response rating (crabgrass; [1]): 7 | Crabgrass plant response rating (crabgrass; [7]): 2 | Crabgrass plant response rating (0 to 10 scale) (crabgrass; [2]): 7 | Crabgrass plant response rating (crabgrass; [3]): 9 | Crabgrass plant response rating (crabgrass; [4]): 10 | Crabgrass plant response rating (crabgrass; [5]): 5 | Plant response rating, Crabgrass (crabgrass; [6]): 8 | Crabgrass plant response rating (crabgrass; [8]): 9 | Giant foxtail plant response rating (giant foxtail; [1]): 8 | Giant foxtail plant response rating (giant foxtail; [7]): 10 | Giant foxtail plant response rating (0 to 10 scale) (giant foxtail; [2]): 10 | Giant foxtail plant response rating (giant foxtail; [3]): 10 | Giant foxtail plant response rating (giant foxtail; [4]): 10 | Giant foxtail plant response rating (giant foxtail; [5]): 8 | Plant response rating, Giant foxtail (giant foxtail; [6]): 9 | Giant foxtail plant response rating (giant foxtail; [8]): 9 | Morningglory plant response rating (morningglory; [1]): 7 | Morningglory plant response rating (morningglory; [7]): 3 | Morningglory plant response rating (0 to 10 scale) (morningglory; [2]): 3 | Morningglory plant response rating (morningglory; [3]): 5 | Morningglory plant response rating (morningglory; [4]): 7 | Morningglory plant response rating (morningglory; [5]): 7 | Plant response rating, Morningglory (morningglory; [6]): 8 | Morningglory plant response rating (morningglory; [8]): 10 | Redroot pigweed plant response rating (pigweed; [1]): 6 | Redroot pigweed plant response rating (pigweed; [7]): 7 | Redroot pigweed plant response rating (0 to 10 scale) (pigweed; [2]): 10 | Redroot pigweed plant response rating (pigweed; [3]): 10 | Redroot pigweed plant response rating (pigweed; [4]): 10 | Redroot pigweed plant response rating (pigweed; [5]): 2 | Plant response rating, Redroot pigweed (pigweed; [6]): 8 | Redroot pigweed plant response rating (pigweed; [8]): 10 | Soybean plant response rating (soybean; [1]): 7 | Soybean plant response rating (soybean; [7]): 2 | Soybean plant response rating (0 to 10 scale) (soybean; [2]): 3 | Soybean plant response rating (soybean; [3]): 8 | Soybean plant response rating (soybean; [4]): 8 | Soybean plant response rating (soybean; [5]): 5 | Plant response rating, Soybean (soybean; [6]): 8 | Soybean plant response rating (soybean; [8]): 8 | Velvetleaf plant response rating (velvetleaf; [1]): 7 | Velvetleaf plant response rating (velvetleaf; [7]): 7 | Velvetleaf plant response rating (0 to 10 scale) (velvetleaf; [2]): 8 | Velvetleaf plant response rating (velvetleaf; [3]): 9 | Velvetleaf plant response rating (velvetleaf; [4]): 10 | Velvetleaf plant response rating (velvetleaf; [5]): 0 | Plant response rating, Velvetleaf (velvetleaf; [6]): 8 | Velvetleaf plant response rating (velvetleaf; [8]): 8 | Wheat plant response rating (wheat; [1]): 3 | Wheat plant response rating (wheat; [7]): 2 | Wheat plant response rating (0 to 10 scale) (wheat; [2]): 8 | Wheat plant response rating (wheat; [3]): 8 | Wheat plant response rating (wheat; [4]): 10 | Wheat plant response rating (wheat; [5]): 3 | Plant response rating, Wheat (wheat; [6]): 5 | Wheat plant response rating (wheat; [8]): 6 | Wild oats plant response rating (wild oat; [1]): 3 | Wild oats plant response rating (wild oat; [7]): 10 | Wild oats plant response rating (0 to 10 scale) (wild oat; [2]): 10 | Wild oats plant response rating (wild oat; [3]): 10 | Wild oats plant response rating (wild oat; [4]): 10 | Wild oats plant response rating (wild oat; [5]): 2 | Plant response rating, Wild oats (wild oat; [6]): 9 | Wild oats plant response rating (wild oat; [8]): 10 | Rice plant response rating (rice; [9]): 0 | Rice plant response rating (rice; [10]): 0 | Rice plant response rating (rice; [11]): 5 | Plant response rating, Rice (rice; [12]): 8 | S. Flatsedge plant response rating (smallflower flatsedge; [9]): 0 | S. Flatsedge plant response rating (smallflower flatsedge; [10]): 3 | S. Flatsedge plant response rating (smallflower flatsedge; [11]): 8 | Plant response rating, S. Flatsedge (smallflower flatsedge; [12]): 8 | Barnyardgrass plant response rating (bamyardgrass; [9]): 0 | Barnyardgrass plant response rating (bamyardgrass; [10]): 0 | Barnyardgrass plant response rating (bamyardgrass; [11]): 9 | Plant response rating, Barnyardgrass (bamyardgrass; [12]): 9
